Source: patent publication US8512958B2, “Methods of identifying agents that modulate mitochondrial function” (The J. David Gladstone Institutes, priority 2005, dated 2013)
“Also recorded” adds a separate entry of the source.

Tests used:
[1] = system: differentiated PC12 cells; assay: Time-lapse recording of mitochondrial motility and morphology in neurites of differentiated PC12 cells (exogenous agents); conditions: for mitochondrial motility, increase: nimodipine 5 μM together with AP5 50 μM, with or without apoE forms
Neuro-2a cells = assay: MTT cell survival assay of Neuro-2a cells transiently transfected with apoE4 cDNA constructs; format: cell-based, mouse; conditions: expressed in Neuro-2a cells, MTT assay 48 h after transfection
Experimental: Cell Culture and Transfection. […] ApoE4 expression levels were determined by anti-apoE western blotting of cell lysates and media. […] Thus, the results are not due to overexpression.
Cell Survival. […] Cell survival was estimated with an MTT colorimetric assay (52) 48 h after transfection.

[2] = system: rat primary cortical neurons; assay: Dendritic spine density (EGFP-β-actin, confocal microscopy) in primary cortical neurons; format: cell-based
Experimental: (§1) Cortices or hippocampi from neonatal rat pups were dissected and treated with papain (10 units ml^−1, 30 min; Worthington Biochemical, Lakewood, N.J.) and the with trypsin inhibitor (10 mg ml^−1, 15 min). Dissociated neurons were plated on 12-mm glass coverslips (Fisher Scientific, Hampton, N.H.) (8×10^5 cells per cm^2) coated with poly-L-lysine. After 2 h, cells were transferred into Neurobasal medium supplemented with B27, 1 mM L-glutamine, and 100 μg/ml penicillin/streptomycin (Invitrogen). Neurons were routinely transfected after 10 days in culture and used for experiments 5-7 days after transfection. Cells were maintained in a humidified incubator with 5% CO2 at 37° C.
Neuronal activation and inhibition.
(§2) Confocal Microscopy. Cultured primary neurons treated with various forms of apoE were fixed for 20 min in ice-cold 4% paraformaldehyde in PBS and mounted with Vectashield (Vector Laboratories Burlingame, Calif.). Digital images of EGFP and dsRed fluorescence in primary neurons were collected on a laser-scanning confocal microscope with a Bio-Rad Radiance 2000 scanhead (Bio-Rad, Hercules, Calif.) mounted on a BX60 microscope (Olympus, Melville, N.Y.) with a 60× oil objective.
To assess the effect of exogenous apoE on dendritic spine density, rat primary cortical and hippocampal neurons, which had been cultured for 14-17 days in vitro, were incubated with different forms of apoE (7.5 μg/ml) for 24 h. Four to six days before the experiment, the cells were transfected with EGFP-tagged β-actin (EGFP-β-actin), a cytoskeletal protein that is abundant in dendritic spines. […] Other measures of neuronal complexity (e.g., dendritic field and length of dendritic extensions) were not affected by any form of apoE. […] FIGS. 12A and 12B. […] (a) Confocal micrographs of synaptic EGFP-β-actin fluorescence in dendrites of rat primary cortical and hippocampal neurons (16 days in vitro) incubated for 24 h with or without (control) various forms of apoE (7.5 μg/ml). Scale bar=5 μm. (b) Number of spines per μm of dendritic extension. […]

[3] = system: rat primary hippocampal neurons; assay: Dendritic spine density (EGFP-β-actin, confocal microscopy) in primary hippocampal neurons; format: cell-based; conditions: apoE 7.5 μg/ml, 24 h
Experimental: as §1, §2
To assess the effect of exogenous apoE on dendritic spine density, rat primary cortical and hippocampal neurons, which had been cultured for 14-17 days in vitro, were incubated with different forms of apoE (7.5 μg/ml) for 24 h. […]

[4] = system: dendrites of primary cortical neurons; assay: Number, size and occupancy of mitochondria in dendrites of primary cortical neurons; format: cell-based, rat; conditions: primary neurons treated with apoE
[5] = repetitive depolarization with KCl 90 mM, 4×3 min
[6] = cortical neurons, apoE 7.5 μg/ml, 24 h

## NC1=N[C@H](O)[C@H]2[C@H]3O[C@]4(O)O[C@@H]([C@@H](O)[C@@]2(N1)[C@@H]4O)[C@]3(O)CO [TTX, tetrodotoxin]
[1]
  mitochondrial dynamics: increased
  mitochondrial index: without affecting; also recorded: not affected

## [Cl-].[K+] [KCl]
[1]; [5]
  average moving velocity (moving distance/15 min) in the anterograde direction: drastically reduced
  mitochondrial moving velocity (moving distance/time moving): unaltered; also recorded: did not affect
  net moving distance in the anterograde direction: drastically reduced
  retrograde motility (toward the soma): No significant changes
[1]; repetitive depolarizations with KCl (4×, 90 mM)
  mitochondrial index, reduced: 22.5%

## L279Q: full-length WT apoE4 with single mutation L279Q
Neuro-2a cells
  neurotoxicity: as neurotoxic as apoE4(1-272)

## COCCOC(=O)C1=C(C)NC(C)=C(C(=O)OC(C)C)C1c1cccc([N+](=O)[O-])c1 (centres unmarked) [nimodipine]
[1]; 24 h
  mitochondrial motility, increase: about 30%

## NC(CCCP(=O)(O)O)C(=O)O (centres unmarked) [AP5, 2-amino-5-phosphonovalerate]
[1]; 24 h
  mitochondrial motility, increase: about 30%

## Q284A: full-length WT apoE4 with single mutation Q284A
Neuro-2a cells
  neurotoxicity: as neurotoxic as apoE4(1-272)

## apoE4: Human apolipoprotein E4 isoform, 299 amino acids (SEQ ID NO:1); recombinant or expressed
[2]; [6]
  density of dendritic spines, decrease compared with controls: 13±5%
  density of dendritic spines, reduction compared with apoE3: 27±5%
[2]; primary cortical neurons, apoE 7.5 μg/ml 24 h, repetitive KCl depolarization
  spinal density in response to neuronal activation, reduced as compared to controls: 48±11%
[3]
  density of dendritic spines, decrease compared with controls: 19±5%
  density of dendritic spines, reduction compared with apoE3: 28±4%
[4]
  number of mitochondria at dendritic spines compared with apoE3-treated cells or controls: many fewer
[1]; apoE 7.5 μg/ml 24 h, then repetitive depolarizations with KCl
  extent of the mitochondrial motility response to neuronal activation, reduced to: 30%
[1]; exogenous apoE 7.5 μg/ml, 24 h
  average mitochondrial length: significantly reduced
  retrograde velocity / retrograde direction motility: unaffected
